Measurements from patent publication US6197768A, “Pyridocarbazole derivatives having cgmp-pde inhibitory activity” (Mochida Pharmaceutical Co., Ltd., priority 1996, dated 2001).

Tests used:
PDE type III = molecular target: T1, PDE type III (Canis lupus familiaris, UniProt A0A8I3NYE0); experiment: PDE Inhibiting Activity, type III; assay type: biochemical, dog (canine aorta); settings: PDE type III from canine aorta, 1 μM substrate, pH 7.5; read-out: Inhibition Activity IC50, Type III
T1 construct: PDE was purified from the aorta in a dog; from tissue; host or cells: dog aorta
T1 sequence (A0A8I3NYE0 1-1135): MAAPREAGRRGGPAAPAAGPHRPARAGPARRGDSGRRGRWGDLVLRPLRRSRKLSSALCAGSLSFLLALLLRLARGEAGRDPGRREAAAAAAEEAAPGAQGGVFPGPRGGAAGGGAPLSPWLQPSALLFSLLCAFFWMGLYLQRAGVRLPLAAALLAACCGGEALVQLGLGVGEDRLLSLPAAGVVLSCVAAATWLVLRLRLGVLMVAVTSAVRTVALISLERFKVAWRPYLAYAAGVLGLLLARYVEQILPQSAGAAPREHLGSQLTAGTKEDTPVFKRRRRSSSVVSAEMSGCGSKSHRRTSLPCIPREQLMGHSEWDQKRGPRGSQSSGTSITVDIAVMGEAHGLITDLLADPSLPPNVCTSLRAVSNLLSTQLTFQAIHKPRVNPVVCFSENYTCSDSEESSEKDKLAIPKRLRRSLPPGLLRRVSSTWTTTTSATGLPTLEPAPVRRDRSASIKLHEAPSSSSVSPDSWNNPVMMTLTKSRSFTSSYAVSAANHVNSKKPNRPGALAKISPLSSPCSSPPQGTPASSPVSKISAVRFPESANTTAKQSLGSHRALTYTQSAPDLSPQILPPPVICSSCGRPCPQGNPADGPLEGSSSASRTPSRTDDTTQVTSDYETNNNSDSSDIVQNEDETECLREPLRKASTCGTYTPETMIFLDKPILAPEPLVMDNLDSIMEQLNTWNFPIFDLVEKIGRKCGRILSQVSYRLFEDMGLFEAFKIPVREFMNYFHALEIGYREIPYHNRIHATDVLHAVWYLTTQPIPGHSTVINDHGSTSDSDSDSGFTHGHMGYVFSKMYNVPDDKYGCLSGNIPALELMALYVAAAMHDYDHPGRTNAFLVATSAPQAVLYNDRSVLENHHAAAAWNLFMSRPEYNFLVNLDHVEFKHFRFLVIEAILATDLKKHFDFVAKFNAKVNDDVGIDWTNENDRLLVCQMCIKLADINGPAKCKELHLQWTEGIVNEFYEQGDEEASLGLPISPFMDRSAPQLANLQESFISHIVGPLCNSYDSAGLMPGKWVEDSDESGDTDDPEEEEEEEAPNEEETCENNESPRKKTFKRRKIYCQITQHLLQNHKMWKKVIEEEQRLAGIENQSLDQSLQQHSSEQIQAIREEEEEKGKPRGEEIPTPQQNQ
Method: (§1) On the basis of the method of Lugnier et al. (Biochem. Pharmacol., 35, 1743-1751, 1986), PDE was purified from the aorta in a dog. The canine aorta was minced and homogenized with a Waring Blender and a glass homogenizer in six volumes of a Tris-HCl buffer solution (pH 7.5, 20 mM) containing 2 mM magnesium acetate, 5 mM ethylenediaminetetraacetic acid (EDTA), 100 μg/mL of phenylmethylsulforyl fluoride and 15 mM 2-mercaptoethanol (2-ME), and centrifuged at 1200 xg for 30 min. The supernatant was separated and salted out with ammonium sulfate which was added to 45% saturation. The resulting precipitated fraction was resuspended in a Tris-HCl buffer solution (pH 7.5, 20 mM) containing 2 mM magnesium acetate and 1 mM 2-ME, dialyzed overnight and applied to a DEAE-trisacryl column (DEAE […] M:IBF). By elution with a sodium chloride gradient (0-0.4 M), PDE types V and III were separated from the other isozymes. The supernatant fraction of 45% saturated ammonium sulfate was further mixed with ammonium sulfate to 65% saturation and salted out. The resulting precipitated fraction was similarly applied to the DEAE-trisacryl column and eluted by a sodium chloride gradient (0-0.4 M) so as to separate PDE type I.
(§2) The thus obtained PDE types V, III and I were measured for their activity in accordance with the method of Thompson et al. (Adv. Cyclic Nucleotide Res., 10, 69-72, 1979) and the method of Wells et al. (Biochim. Biophys. Acta, 384, 430-443, 1975). Specifically, a purified PDE sample was added to 50 mM Tris-HCl buffer solution (pH 7.5) containing 1 μM of substrate cGMP or cAMP (containing tritium-labelled cGMP or cAMP), 1 mM EGTA and 2 mM magnesium acetate. For PDE activity measurement, enzymatically produced 5' GMP or 5' AMP was further hydrolyzed into guanosine or adenosine with snake venom and separated from the substrate by means of an ion-exchange resin (Dowex 1-X2), followed by measuring with a scintillation counter. The activity of each test compound was determined as a percentage of the DPE activity measured when it was added as a dimethyl sulfoxide solution (DMSO) and its IC50 (50% inhibition concentration) was calculated by the probit method. The final concentration of DMSO was adjusted to be no more than 2% in consideration of the effect on PDE activity.

PDE type I = experiment: PDE Inhibiting Activity, type I; assay type: biochemical, dog (canine aorta); settings: PDE type I from canine aorta, 1 μM substrate, pH 7.5; read-out: Inhibition Activity IC50, Type I
Method: as §1, §2

IC50 (PDE type III)	IC50 (PDE type I)	SMILES
3.6 µM	> 30 µM	O=c1c(Cc2cccnc2)cn2c3ccc(Br)cc3c3cc(O)cc1c32 [Example 2, 10-bromo-2-hydroxy-5-(3-pyridylmethyl)-4H-pyrido [3,2,1-jk]carbazole-4-one]
6.8 µM	> 30 µM	CC(C)OC(=O)COc1cc2c(=O)c(Cc3cccnc3)cn3c4ccc(Br)cc4c(c1)c23 [Example 4, 10-bromo-2-i-propoxycarbonylmethyloxy-5-(3-pyridylmethyl)-4H-pyrido [3,2,1-jk]carbazole-4-one]
19 µM	> 30 µM	CCOC(=O)COc1cc2c(=O)c(Cc3cccnc3)cn3c4ccc(Br)cc4c(c1)c23 [Example 5, 10-bromo-2-ethoxycarbonylmethyloxy-5-(3-pyridylmethyl)-4H-pyrido [3,2,1-jk]carbazole-4-one]
1.9 µM	> 30 µM	O=c1c(Cc2cccnc2)cn2c3ccc(Br)cc3c3cc(OCc4cccnc4)cc1c32 [Example 18, 10-bromo-5-(3-pyridylmethyl)-2-(3-pyridylmethyloxy)-4H-pyrido [3,2,1-jk]carbazole-4-one]
11 µM	> 30 µM	O=c1c(Cc2cccnc2)cn2c3ccc(Br)cc3c3cc(OCc4ccccc4)cc1c32 [Example 22, 2-benzyloxy-10-bromo-5-(3-pyridylmethyl)-4H-pyrido [3,2,1-jk]carbazole-4-one]
> 100 µM	> 100 µM	COc1cc2c(=O)c(C)cn3c4ccc(Br)cc4c(c1)c23 [Example 48, 10-bromo-2-methoxy-5-methyl-4H-pyrido [3,2,1-jk]carbazole-4-one]
198 µM	> 300 µM	Cc1cn2c3ccc(Br)cc3c3cc(O)cc(c1=O)c32 [Example 49, 10-bromo-2-hydroxy-5-methyl-4H-pyrido [3,2,1-jk]carbazole-4-one]
> 30 µM	> 30 µM	Cc1cn2c3ccc(Br)cc3c3cc(OCC(=O)OC(C)C)cc(c1=O)c32 [Example 51]
> 30 µM	> 30 µM	CCOC(=O)COc1cc2c(=O)c(C)cn3c4ccc(Br)cc4c(c1)c23 [Example 52, 10-bromo-2-ethoxycarbonylmethyloxy-5-methyl-4H-pyrido [3,2,1-jk]carbazole-4-one]
> 30 µM	> 30 µM	CCCC(=O)COc1cc2c(=O)c(C)cn3c4ccc(Br)cc4c(c1)c23 [Example 57, 10-bromo-2-(2-oxopentyloxy)-5-methyl-4H-pyrido [3,2,1-jk]carbazole-4-one]
> 10 µM	> 10 µM	COc1cc2c(=O)ccn3c4ccc(Br)cc4c(c1)c23 [Example 58, 10-bromo-2-methoxy-4H-pyrido [3,2,1-jk]carbazole-4-one]
> 100 µM	> 100 µM	O=c1ccn2c3ccc(Br)cc3c3cc(O)cc1c32 [Example 59, 10-bromo-2-hydroxy-4H-pyrido [3,2,1-jk]carbazole-4-one]
> 30 µM	> 30 µM	CC(C)OC(=O)COc1cc2c(=O)ccn3c4ccc(Br)cc4c(c1)c23 [Example 61, 10-bromo-2-i-propoxycarbonylmethyloxy-4H-pyrido [3,2,1-jk]carbazole-4-one]
> 30 µM	> 30 µM	CCOC(=O)COc1cc2c(=O)ccn3c4ccc(Br)cc4c(c1)c23 [Example 62, 10-bromo-2-ethoxycarbonylmethyloxy-4H-pyrido [3,2,1-jk]carbazole-4-one]
> 30 µM	> 30 µM	O=C(O)COc1cc2c(=O)ccn3c4ccc(Br)cc4c(c1)c23 [Example 63, 10-bromo-2-carboxymethyloxy-4H-pyrido [3,2,1-jk]carbazole-4-one]
81 µM	> 100 µM	O=c1ccn2c3ccc(Br)cc3c3cc(OCc4cccnc4)cc1c32 [Example 64, 10-bromo-2-(3-pyridylmethyloxy)-4H-pyrido [3,2,1-jk]carbazole-4-one]
> 30 µM	> 30 µM	O=c1ccn2c3ccc(Br)cc3c3cc(OCc4ccccc4)cc1c32 [Example 66]
> 30 µM	> 30 µM	O=c1ccn2c3ccc(Br)cc3c3cc(OCc4ncon4)cc1c32 [Example 76]
> 100 µM	> 100 µM	CC(=O)Oc1cc2c(=O)ccn3c4ccc(Br)cc4c(c1)c23 [Example 82]
> 30 µM	> 30 µM	CCCC(=O)COc1cc2c(=O)ccn3c4ccc(Br)cc4c(c1)c23 [Example 83, 10-bromo-2-(2-oxopentyloxy)-4H-pyrido [3,2,1-jk]carbazole-4-one]
> 30 µM	> 30 µM	COc1cc2c(=O)c(Cc3cccnc3)cn3c4cc(Br)ccc4c(c1)c23 [Example 101, 9-bromo-2-methoxy-5-(3-pyridylmethyl)-4H-pyrido [3,2,1-jk]carbazole-4-one]
3.5 µM	> 30 µM	O=C(O)COc1cc2c(=O)c(Cc3cccnc3)cn3c4cc(Br)ccc4c(c1)c23 [Example 104, 9-bromo-2-carboxymethyloxy-5-(3-pyridylmethyl)-4H-pyrido [3,2,1-jk]carbazole-4-one]
> 30 µM	> 30 µM	O=c1c(Cc2cccnc2)cn2c3cc(Br)ccc3c3cc(OCc4cncc(CO)c4)cc1c32 [Example 107, 9-bromo-2-(5-hydroxymethyl-3-pyridylmethyloxy)-5-(3-pyridylmethyl)-4H-pyrido [3,2,1-jk]carbazole-4-one]
> 30 µM	> 30 µM	COc1cc2c(=O)c(Cc3ccccc3)cn3c4cc(Br)ccc4c(c1)c23 [Example 121, 5-benzyl-9-bromo-2-methoxy-4H-pyrido [3,2,1-jk]carbazole-4-one]
13 µM	> 30 µM	O=c1c(Cc2ccccc2)cn2c3cc(Br)ccc3c3cc(O)cc1c32 [Example 122, 5-benzyl-9-bromo-2-hydroxy-4H-pyrido [3,2,1-jk]carbazole-4-one]
5.6 µM	> 30 µM	CC(=O)Oc1cc2c(=O)c(Cc3cccnc3)cn3c4ccccc4c(c1)c23 [Example 156]
12 µM	> 30 µM	CC(=O)Oc1ccc2c3cccc4c(=O)c(Cc5cccnc5)cn(c2c1)c43 [Example 226]

SMILES	IC50 (PDE type III)	IC50 (PDE type I)
CC(C)(C)OC(=O)COc1cc2c(=O)c(Cc3cccnc3)cn3c4cc(Br)ccc4c(c1)c23 [Example 103, 9-bromo-2-t-butoxycarbonyl-methyloxy-5-(3-pyridylmethyl)-4H-pyrido [3,2,1-jk]carbazole-4-one]	> 30 µM	–
CC(=O)OCc1cncc(COc2cc3c(=O)c(Cc4cccnc4)cn4c5cc(Br)ccc5c(c2)c34)c1 [Example 106, 2-(5-acetoxymethyl-3-pyridylmethyloxy)-9-bromo-5-(3-pyridylmethyl)-4H-pyrido [3,2,1-jk]carbazole-4-one]	> 30 µM	> 30 µM
